US20020137929A1, “1 - (3-heterocyclylphenyl) isothiourea, -isourea, -guanidine and -amidine herbicidal agents” (Intellectual Property Department, BASF Aktiengesellschaft, priority 1998, published 2002)

Assays:
CYPIR (Rice Flatsedge) = assay: Preemergence weed control under flooded paddy conditions; format: in vivo, Cyperus iria; details: rated 3-4 weeks after treatment
In short: (§1)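 Herbicidal effect is scored visually on a 0-9 scale against an untreated control, three to four weeks after compounds are pipetted into the flood water (1.5 to 3 cm deep) over seeds planted in silt loam at 0.5 cm depth. Rates: about 0.0313 to 0.500 kg/ha.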

MOOVA (Monochoria) = assay: Postemergence weed control under flooded paddy conditions; format: in vivo, Monochoria vaginalis; details: postemergence weeds
In short: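 Flood-water application, about 0.0313–0.500 kg/ha a.i. in aqueous/acetone 50/50 v/v; water depth 1.5–3 cm throughout. Weeds 3–5 cm, rice 1.5–2.5 leaf. Greenhouse; 0–9 visual rating vs control at 3–4 wk.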

ABUTH (Velvetleaf) = assay: Preemergence herbicidal evaluation; format: in vivo, Abutilon theophrasti; details: rated 4-5 weeks after treatment
In short: (§2)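 Visual 0-9 rating vs control (stand, vigor, malformation, size, chlorosis, overall appearance), scored 4-5 wk after spraying. Seeded soil cups were treated preemergence with compound in aqueous acetone, ~0.0156-0.500 kg/ha equivalent.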

[1] = test system: SAGPY (Arrowhead (Pygmaea)); assay: Preemergence weed control under flooded paddy conditions; format: in vivo, Sagittaria pygmaea; details: rated 3-4 weeks after treatment
In short: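 Seeds or propagules sown in silt loam kept flooded 1.5-3 cm; compounds in 50/50 acetone/water pipetted into flood water at about 0.0313 to 0.500 kg/ha. Greenhouse; visual 0-9 rating versus untreated control 3-4 weeks after treatment.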

[2] = test system: ECHORC (Watergrass (Calif.)); assay: as above; format: in vivo, Echinochloa oryzoides; details: rated 3-4 weeks after treatment
In short: as §1

[3] = test system: TRZAWR (Wheat, Winter, cv Riband); assay: Preemergence herbicidal evaluation; format: in vivo, Triticum aestivum; details: rated 4-5 weeks after treatment
In short: as §2

[4] = rate 0.0313 kg/ha, 3-4 weeks after treatment
[5] = rate 0.0625 kg/ha, 3-4 weeks after treatment
[6] = rate 0.1250 kg/ha, 3-4 weeks after treatment
[7] = rate 0.2500 kg/ha, 3-4 weeks after treatment

Compound	Herbicidal rating CYPIR (CYPIR (Rice Flatsedge); 0.0313 kg/ha)	Herbicidal rating CYPIR (CYPIR (Rice Flatsedge); 0.0625 kg/ha)	Herbicidal rating CYPIR (CYPIR (Rice Flatsedge); 0.1250 kg/ha)	Herbicidal rating CYPIR (CYPIR (Rice Flatsedge); 0.2500 kg/ha)	Herbicidal rating MOOVA (MOOVA (Monochoria); [4])	Herbicidal rating MOOVA (MOOVA (Monochoria); [5])	Herbicidal rating MOOVA (MOOVA (Monochoria); [6])	Herbicidal rating MOOVA (MOOVA (Monochoria); [7])	ABUTH preemergence herbicidal rating (ABUTH (Velvetleaf); rate 0.0156 kg/ha)	ABUTH preemergence herbicidal rating (ABUTH (Velvetleaf); rate 0.0313 kg/ha)	ABUTH preemergence herbicidal rating (ABUTH (Velvetleaf); rate 0.0625 kg/ha)	ABUTH preemergence herbicidal rating (ABUTH (Velvetleaf); rate 0.1250 kg/ha)	ABUTH preemergence herbicidal rating (ABUTH (Velvetleaf); rate 0.2500 kg/ha)	Herbicidal rating SAGPY ([1]; 0.0313 kg/ha)	Herbicidal rating SAGPY ([1]; 0.0625 kg/ha)	Herbicidal rating SAGPY ([1]; 0.1250 kg/ha)	Herbicidal rating SAGPY ([1]; 0.2500 kg/ha)	Herbicidal rating ECHORC ([2]; 0.0313 kg/ha)	Herbicidal rating ECHORC ([2]; 0.0625 kg/ha)	Herbicidal rating ECHORC ([2]; 0.1250 kg/ha)	other results
CCOC(=O)CN1C(=O)CSC1=Nc1cc(-n2c(=O)cc(C(F)(F)F)n(C)c2=O)c(F)cc1Cl [Compound 8, Ethyl 2-{{2-chloro-5-[3,6-dihydro-3-methyl-2,6-dioxo-4-(trifluoromethyl)-1(2H)pyrimidinyl]-4-fluorophenyl}imino}-4-oxo-3-thiazolidineacetate]	0.0	0.0	0.0	4.0	9.0	9.0	9.0	9.0	7.3	8.4	8.7	9.0	9.0	0.0	0.0	0.0	0.0	6.5	6.5	7.5	ABUTH preemergence herbicidal rating (ABUTH (Velvetleaf); rate 0.5000 kg/ha): 9.0; Herbicidal rating ECHORC ([2]; 0.2500 kg/ha): 8.5; TRZAWR preemergence herbicidal rating ([3]; rate 0.0156 kg/ha): 0.2; TRZAWR preemergence herbicidal rating ([3]; rate 0.0313 kg/ha): 0.8; TRZAWR preemergence herbicidal rating ([3]; rate 0.0625 kg/ha): 2.8; TRZAWR preemergence herbicidal rating ([3]; rate 0.1250 kg/ha): 5.5; TRZAWR preemergence herbicidal rating ([3]; rate 0.2500 kg/ha): 7.2; TRZAWR preemergence herbicidal rating ([3]; rate 0.5000 kg/ha): 7.8
CCOC(=O)CN1C(=O)C2(CC2)SC1=Nc1cc(-n2c(=O)cc(C(F)(F)F)n(C)c2=O)c(F)cc1Cl [Compound 15, Ethyl 5-{{2-chloro-5-[3,6-dihydro-3-methyl-2,6-dioxo-4-(trifluoromethyl)-1(2H)-pyrimidinyl]-4-fluorophenyl}imino}-7-oxo-4-thia-6-azaspiro[2.4]-heptane-6-acetate]	2.0	2.0	6.0	7.0	9.0	9.0	9.0	9.0	1.5	3.0	9.0	9.0	9.0	0.0	0.0	0.0	0.0	6.0	9.0	9.0	Herbicidal rating ECHORC ([2]; 0.2500 kg/ha): 9.0; TRZAWR preemergence herbicidal rating ([3]; rate 0.0156 kg/ha): 0.0; TRZAWR preemergence herbicidal rating ([3]; rate 0.0313 kg/ha): 0.0; TRZAWR preemergence herbicidal rating ([3]; rate 0.0625 kg/ha): 0.0; TRZAWR preemergence herbicidal rating ([3]; rate 0.1250 kg/ha): 5.0; TRZAWR preemergence herbicidal rating ([3]; rate 0.2500 kg/ha): 5.0
C=CCN1C(=O)C(CC(=O)NS(=O)(=O)c2ccccc2)SC1=Nc1cc(-n2c(=O)cc(C(F)(F)F)n(C)c2=O)c(F)cc1Cl (centres unmarked) [Compound 101, 3-Allyl-2-{{2-chloro-5-[3,6-dihydro-3-methyl-2,6-dioxo-4-(trifluoromethyl)-1(2H)-pyrimidinyl]-4-fluorophenyl}imino}-4-oxo-N-(phenylsulfonyl)-5-thiazolidineacetamide]	–	–	–	–	–	–	–	–	–	–	–	–	–	–	–	–	–	–	–	–	CYPIR herbicidal effect rating (CYPIR (Rice Flatsedge); 0.0313 kg/ha): 0.0; CYPIR herbicidal effect rating (CYPIR (Rice Flatsedge); 0.0625 kg/ha): 0.0; CYPIR herbicidal effect rating (CYPIR (Rice Flatsedge); 0.1250 kg/ha): 0.0; CYPIR herbicidal effect rating (CYPIR (Rice Flatsedge); 0.2500 kg/ha): 3.0; CYPIR herbicidal effect rating (CYPIR (Rice Flatsedge); 0.5000 kg/ha): 4.0; Herbicidal rating MOOVA (MOOVA (Monochoria); Rate 0.0313 kg/ha, rated 3 to 4 weeks after treatment): 5.0; Herbicidal rating MOOVA (MOOVA (Monochoria); Rate 0.0625 kg/ha, rated 3 to 4 weeks after treatment): 5.0; Herbicidal rating MOOVA (MOOVA (Monochoria); Rate 0.1250 kg/ha, rated 3 to 4 weeks after treatment): 7.0; Herbicidal rating MOOVA (MOOVA (Monochoria); Rate 0.2500 kg/ha, rated 3 to 4 weeks after treatment): 9.0; Herbicidal rating MOOVA (MOOVA (Monochoria); Rate 0.5000 kg/ha, rated 3 to 4 weeks after treatment): 9.0; SAGPY herbicidal effect rating ([1]; 0.0313 kg/ha): 0.0; SAGPY herbicidal effect rating ([1]; 0.0625 kg/ha): 0.0; SAGPY herbicidal effect rating ([1]; 0.1250 kg/ha): 0.0; SAGPY herbicidal effect rating ([1]; 0.2500 kg/ha): 2.0; SAGPY herbicidal effect rating ([1]; 0.5000 kg/ha): 4.0; ECHORC herbicidal effect rating ([2]; 0.0313 kg/ha): 0.0; ECHORC herbicidal effect rating ([2]; 0.0625 kg/ha): 0.0; ECHORC herbicidal effect rating ([2]; 0.1250 kg/ha): 0.0; ECHORC herbicidal effect rating ([2]; 0.2500 kg/ha): 0.0; ECHORC herbicidal effect rating ([2]; 0.5000 kg/ha): 0.0
